Measured values taken from patent US7348140B1, “Clinical indications for genotyping polymorphic variants of G-protein coupled receptors” (Acadia Pharmaceuticals, Inc., priority 2001, dated 2008).
Changes are numbered by the printed parent chain. pEC50: −log10 of the molar value. Values joined by “and” are separate entries in the source; they are usually repeats but may differ in a detail not shown here. Equal values may be shown once. Where a name gives a salt, the structure may show the parent alone. Read-outs that look alike come from different tables or passages of the source.

Assays:
[1] = target: histamine H2 receptor (Arginine 215 / Lysine 231) (Homo sapiens, UniProt P25021); experiment: R-SAT functional assay, histamine H2 receptor wild type; type: cell-based; settings: agonists and inverse agonists; for EC50: read-out: Ave −Log EC50 (converted)
[2] = target: serotonin 7 receptor L421P (Proline 421) (Homo sapiens, UniProt P34969, L421P); experiment: R-SAT functional assay, serotonin 7 receptor L421P; type: cell-based; settings: Table 20; for EC50: read-out: Ave −Log EC50 (converted); for FOLD: shift in functional potency, Proline 421 vs Leucine 421
[3] = target: serotonin 7 receptor (Leucine 421) (Homo sapiens, UniProt P34969); experiment: R-SAT functional assay, serotonin 7 receptor wild type; type: cell-based; settings: Leucine 421 (wild type), inverse agonists, Table 20; for EC50: read-out: Ave −Log EC50 (converted)
[4] = target: serotonin 1E receptor S262F (Phenylalanine 262) (Homo sapiens, UniProt P28566, S262F); experiment: cell-based
[5] = target: serotonin 1E receptor (Isoleucine 44 / Serine 262) (Homo sapiens, UniProt P28566); experiment: cell-based
[6] = target: serotonin 1E receptor I44T (Threonine 44) (Homo sapiens, UniProt P28566, I44T); experiment: cell-based
[7] = target: T1, dopamine D2 receptor L40R (Arginine 40) (Homo sapiens, UniProt P14416, L40R); experiment: R-SAT functional assay, dopamine D2 receptor L40R; type: cell-based
T1 construct: expressed in transfected cells; host or cells: NIH-3T3

[8] = target: dopamine D2 receptor (Leucine 40 / Valine 208) (Homo sapiens, UniProt P14416); experiment: R-SAT functional assay, dopamine D2 receptor wild type; type: cell-based; settings: for pEC50: Ave −Log EC50; for EC50: read-out: Ave −Log EC50 (converted)
[9] = target: T2, dopamine D2 receptor V208L (Leucine 208) (Homo sapiens, UniProt P14416, V208L); experiment: R-SAT functional assay, dopamine D2 receptor V208L; type: cell-based
T2 construct: expressed in transfected cells; host or cells: NIH-3T3

[10] = target: T3, alpha 1A/C receptor (Glycine 43 / Isoleucine 200) (Homo sapiens, UniProt P35348, C347R/Q431E); experiment: R-SAT functional assay, alpha 1A/C receptor wild type; type: cell-based; settings: read-out: Ave −Log EC50 (converted)
T3 construct: expressed in transfected cells; host or cells: NIH-3T3
T3 sequence (P35348 1-464 C347R/Q431E): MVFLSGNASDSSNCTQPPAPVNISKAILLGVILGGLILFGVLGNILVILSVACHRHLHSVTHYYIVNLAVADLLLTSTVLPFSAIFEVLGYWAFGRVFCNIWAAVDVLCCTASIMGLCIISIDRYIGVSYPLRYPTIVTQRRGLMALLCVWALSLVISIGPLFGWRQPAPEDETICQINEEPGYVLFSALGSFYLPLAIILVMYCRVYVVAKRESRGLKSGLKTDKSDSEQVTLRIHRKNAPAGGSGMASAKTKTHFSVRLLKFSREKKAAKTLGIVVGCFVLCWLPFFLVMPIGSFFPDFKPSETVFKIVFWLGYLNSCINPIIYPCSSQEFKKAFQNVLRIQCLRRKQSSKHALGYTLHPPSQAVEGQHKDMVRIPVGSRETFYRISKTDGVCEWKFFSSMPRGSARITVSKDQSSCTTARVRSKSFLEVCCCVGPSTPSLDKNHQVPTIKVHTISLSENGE

[11] = target: T4, alpha 1A/C receptor I200S (Serine 200) (Homo sapiens, UniProt P35348, C347R/I200S/Q431E); experiment: R-SAT functional assay, alpha 1A/C receptor I200S; type: cell-based; settings: Table 2; for EC50: Serine 200 (I200S), read-out: Ave −Log EC50 (converted); for FOLD: shift in functional potency, Serine 200 vs Isoleucine 200
T4 construct: expressed in transfected cells; host or cells: NIH-3T3
T4 sequence (P35348 1-464 I200S/C347R/Q431E): T3 sequence (P35348 1-464 C347R/Q431E) with I200S

[12] = target: T5, alpha 1A/C receptor G43C (Cysteine 43) (Homo sapiens, UniProt P35348, C347R/G43C/Q431E); experiment: R-SAT functional assay, alpha 1A/C receptor G43C; type: cell-based; settings: Table 1
T5 construct: expressed in transfected cells; host or cells: NIH-3T3

[13] = target: serotonin 2B receptor R388W (Tryptophan 388) (Homo sapiens, UniProt P41595, R388W); experiment: cell-based
[14] = target: serotonin 2B receptor (Arginine 388) (Homo sapiens, UniProt P41595); experiment: cell-based
[15] = target: T6, thromboxane receptor V176E (Glutamic Acid 176) (Homo sapiens, UniProt P21731, V176E); experiment: R-SAT functional assay, thromboxane receptor V176E; type: cell-based; settings: shift in functional potency, Glutamic Acid 176 vs Valine 176
T6 construct: expressed in transfected cells; host or cells: NIH-3T3

[16] = target: T7, thromboxane receptor V80E (Glutamic Acid 80) (Homo sapiens, UniProt P21731, V80E); experiment: R-SAT functional assay, thromboxane receptor V80E; type: cell-based; settings: shift in functional potency, Glutamic Acid 80 vs Valine 80; Table 26
T7 construct: expressed in transfected cells; host or cells: NIH-3T3

[17] = target: T8, thromboxane receptor E94V (Valine 94) (Homo sapiens, UniProt P21731, E94V); experiment: R-SAT functional assay, thromboxane receptor E94V; type: cell-based; settings: shift in functional potency, Valine 94 vs Glutamine 94; Table 27
T8 construct: expressed in transfected cells; host or cells: NIH-3T3

[18] = target: T9, histamine H2 receptor K231R (Arginine 231) (Homo sapiens, UniProt P25021, K231R); experiment: R-SAT functional assay, histamine H2 receptor K231R; type: cell-based
T9 construct: expressed in transfected cells; host or cells: NIH-3T3

[19] = target: T10, dopamine D1 receptor S199A (Alanine 199) (Homo sapiens, UniProt P21728, S199A); experiment: R-SAT functional assay, dopamine D1 receptor S199A; type: cell-based; settings: Table 5
T10 construct: expressed in transfected cells; host or cells: NIH-3T3

[20] = target: T11, dopamine D1 receptor P79S (Serine 79) (Homo sapiens, UniProt P21728, P79S); experiment: R-SAT functional assay, dopamine D1 receptor P79S; type: cell-based; settings: Table 4
T11 construct: expressed in transfected cells; host or cells: NIH-3T3

[21] = target: T12, dopamine D1 receptor T37P (Proline 37) (Homo sapiens, UniProt P21728, T37P); experiment: R-SAT functional assay, dopamine D1 receptor T37P; type: cell-based; settings: Table 3
T12 construct: expressed in transfected cells; host or cells: NIH-3T3

[22] = target: dopamine D1 receptor (Threonine 37 / Proline 79 / Serine 199) (Homo sapiens, UniProt P21728); experiment: R-SAT functional assay, dopamine D1 receptor wild type; type: cell-based; settings: read-out: Ave −Log EC50 (converted)
[23] = target: T13, cholecystokinin B receptor L224Q (Glutamine 224) (Homo sapiens, UniProt P32239, E288K/L224Q); experiment: R-SAT functional assay, cholecystokinin B receptor L224Q; type: cell-based
T13 construct: expressed in transfected cells; host or cells: NIH-3T3

[24] = target: Neuropeptide Y1 receptor, wild type (Histidine 298) (UniProt P25929); experiment: cell-based or functional assay
[25] = target: Neuropeptide Y1 receptor H298P variant (Proline 298) (UniProt P25929); experiment: cell-based or functional assay
[26] = Arginine 215 (wild type), Table 10
[27] = Lysine 231 (wild type), Table 11
[28] = Proline 421 (L421P), inverse agonists
[29] = Isoleucine 200 (wild type), Table 2

## CN(C)CCCSC(=N)N
[1]; [26]
  EC50: 234 nM
[1]; [27]
  Ave −Log EC50: 6.63

## OCCN1CCN([C@@H]2C[C@@H](c3ccc(F)cc3)c3ccc(C(F)(F)F)cc32)CC1 (racemic) [Tefludazine]
[2]; [28]
  EC50: 11.2 nM
[2]
  FOLD: 27.0 fold
[3]
  EC50: 0.417 nM

## CN1CCC(c2c[nH]c3ccc(O)cc23)CC1.O=C(O)/C=C\C(=O)O [BRL54443, 3-(1-Methylpiperidin-4-yl)-1H-indole-5-ol maleate]
[4]
  pEC50: 6.76
  FOLD: 5.9 fold
[5]
  Ave −Log EC50: 7.53
  pEC50: 7.53
[6]
  pEC50: 5.83
  FOLD: 50 fold

## CC(C)C[C@H]1C(=O)N2CCC[C@H]2[C@]2(O)O[C@](NC(=O)[C@@H]3C=C4c5cccc6[nH]c(Br)c(c56)C[C@H]4N(C)C3)(C(C)C)C(=O)N12 [Bromocriptine]
[7]
  pEC50: 7.32
[8]
  pEC50: 9.35 and 8.78
[9]
  pEC50: 9.53

## c1ccc(C2CC2)c(OCC2=NCCN2)c1 [Cirazoline]
[10]; Glycine 43 (wild type), Table 1
  EC50: 42.7 nM
[10]; [29]
  EC50: 15.5 nM
[11]
  EC50: 47.9 nM
  FOLD: 3.1 fold
[12]; Cysteine 43 (G43C), read-out: Ave −Log EC50 (converted)
  EC50: 14.5 nM
[12]; shift in functional potency, Cysteine 43 vs Glycine 43
  FOLD: −3.0 fold

## OCCN1CCN(CC/C=C2/c3ccccc3Sc3ccc(C(F)(F)F)cc32)CC1 [Cis-flupenthixol]
[2]; [28]
  Ave −Log EC50: 7.61
[2]
  FOLD: 2.8 fold
[3]
  Ave −Log EC50: 8.05

## CN1C[C@H](C(=O)N[C@]2(C)O[C@@]3(O)[C@@H]4CCCN4C(=O)[C@H](Cc4ccccc4)N3C2=O)C[C@@H]2c3cccc4[nH]cc(c34)C[C@H]21 [Dihydroergotamine, dihydroergotamine]
[7]
  pEC50: 7.61
  FOLD: 479 fold
[13]
  pEC50: 8.93
  FOLD: 2.5 fold
[8]
  pEC50: 10.29 and 9.57
[14]
  pEC50: 10.03
[9]
  pEC50: 10.29
  FOLD: −5.2 fold

## CC(CCc1ccc(O)cc1)NCCc1ccc(O)c(O)c1 (stereo not drawn) [Dobutamine]
[10]; [29]
  EC50: 550 nM
[11]
  EC50: 2140 nM
  FOLD: 3.9 fold

## OCCN1CCN(CCCN2c3ccccc3Sc3ccc(C(F)(F)F)cc32)CC1 [Fluphenazine]
[2]; [28]
  EC50: 38.9 nM
[2]
  FOLD: 5.8 fold
[3]
  EC50: 6.76 nM

## O=C(O)CCC/C=C\C[C@@H]1[C@@H](/C=C/[C@@H](O)COc2ccc(I)cc2)[C@H]2CC[C@@H]1O2 [I-BOP]
[15]
  FOLD: 13 fold
[16]
  FOLD: 93 fold
[17]
  FOLD: 3.5 fold

## CN1C[C@@H](NS(=O)(=O)N(C)C)C[C@@H]2c3cccc4c3c(cn4C)C[C@H]21 [Mesulergine]
[8]; Leucine 40 (wild type), Table 6
  EC50: 3.55 nM
[8]; Valine 208 (wild type), Table 7
  EC50: 6.92 nM
[9]; Leucine 208 (V208L), Table 7, read-out: Ave −Log EC50 (converted)
  EC50: 2.14 nM

## CNCCC=C1c2ccccc2CCc2ccccc21 [Nortryptiline]
[14]; Arginine 388 (wild type), Table 19, read-out: Ave −Log EC50 (converted)
  EC50: 39.8 nM

## COc1ccc(C2CNC(=O)C2)cc1OC1CCCC1 (stereo not drawn) [ROLIPRAM]
[18]
  pEC50: 6.16
  FOLD: 1.6 fold
[1]; [26]
  EC50: 437 nM
[1]; [27]
  Ave −Log EC50: 6.36

## CN1CCc2c(cc(O)c(O)c2Cl)C(c2ccccc2)C1 (stereo not drawn) [SKF82957, R(+)-6-Chloro-7,8-dihydroxy-3-methyl-1-phenyl-2,3,4,5-tetrahydro-1H-3-benzazapine hydrobromide]
[19]; Alanine 199 (S199A), read-out: Ave −Log EC50 (converted)
  EC50: 955 nM
[19]; shift in functional potency, Alanine 199 vs Serine 199
  FOLD: 11 fold
[20]; Serine 79 (P79S), read-out: Ave −Log EC50 (converted)
  EC50: 4.57 µM
[20]; shift in functional potency, Serine 79 vs Proline 79
  FOLD: 132 fold
[21]; Proline 37 (T37P), read-out: Ave −Log EC50 (converted)
  EC50: 955 nM
[21]; shift in functional potency, Proline 37 vs Threonine 37
  FOLD: 11 fold
[22]; Proline 79 (wild type), Table 4
  EC50: 34.7 nM
[22]; Serine 199 (wild type), Table 5
  EC50: 91.2 nM
[22]; Threonine 37 (wild type), Table 3
  EC50: 91.2 nM

## CN1CCN(CC/C=C2/c3ccccc3Sc3ccc(S(=O)(=O)N(C)C)cc32)CC1 [Thiothixene]
[2]; [28]
  EC50: 21.9 nM
[2]
  FOLD: 3.2 fold
[3]
  EC50: 6.92 nM

## CCCCC[C@H](O)/C=C/[C@@H]1[C@@H](C/C=C\CCCC(=O)O)[C@H]2CO[C@@H]1C2 [U46619]
[15]
  FOLD: 5 fold
[16]
  FOLD: 63 fold
[17]
  FOLD: 6.0 fold

## ANTHAMINE
[18]; Arginine 231 (K231R), agonists and inverse agonists, Table 11
  Ave −Log EC50: 7.29
[1]; [26]
  Ave −Log EC50: 7.81
[1]; [27]
  Ave −Log EC50: 7.82

## CCK-4
[23]
  FOLD: −12.0 fold

## CCK-8-Sulfated
[23]
  FOLD: −3.0 fold

## Leu/Pro NPY (from UniProt P01303 29-97) (peptide)
[24]
  Ave -Log EC50, R-SAT functional potency: 7.5 -log EC50

## PEPTIDE YY (HUMAN) (from UniProt P10082 29-64)
[25]
  Ave -Log EC50, R-SAT functional potency: 6.91 -log EC50
  FOLD (shift in functional potency against wild type): 1070 fold
[24]
  Ave -Log EC50, R-SAT functional potency: 9.94 -log EC50
